From PubChem BioAssay AID1208 (EPA DSSTox, 2008)
Activity calls are given as the source filed them.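 The calls were made as follows: active = at least one rat sex group has a carcinogenic potency value and tumor site recorded; inconclusive = only rat studies were judged inadequate by the national testing program; inactive = no potency or tumor site, with negative rat experiments.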

System: rat chronic carcinogenicity bioassay, TD50
Experiment: DSSTox (CPDBAS) Carcinogenic Potency Database Summary Rat Bioassay Results
Conditions: for Potency: active compounds read low; for outcome: TD50_Rat_Note: no positive results
In short: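 The activity score maps log10(1/TD50_Rat_mmol) linearly onto 1–100; actives without a computed TD50, such as mixtures, receive 50. Source data are chronic rat carcinogenicity tests, using the most positive experiment for each sex.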

[1] = TargetSites_Rat_Female: no positive results
[2] = TD50_Rat_Note: TD50 is harmonic mean of more than one positive test, TargetSites_Rat_Female: liver
[3] = TargetSites_Rat_BothSexes: all tumor bearing animals
[4] = TD50_Rat_Note: TD50 is harmonic mean of more than one positive test, TargetSites_Rat_Female: stomach
[5] = TargetSites_Rat_BothSexes: no positive results
[6] = TD50_Rat_Note: TD50 is harmonic mean of more than one positive test, TargetSites_Rat_Female: urinary bladder

## CC(C)n1c(/C=C/[C@@H](O)C[C@@H](O)CC(=O)O)c(-c2ccc(F)cc2)c2ccccc21
[1]
  Potency: 125 mg/kg/day

## CC(N)=S
  Potency: 11.5 mg/kg/day

## CN(C)NC(=O)CCC(=O)O
TD50_Rat_Note: no positive results are statistically significant, TargetSites_Rat_Female: uterus
  Potency: 2500 mg/kg/day

## Nc1cc(Cl)c(N)c(Cl)c1
[1]
  outcome: inactive; no positive results

## Cc1c(N)nc(C)c2c1[nH]c1ccccc12
[2]
  Potency: 0.575 mg/kg/day

## Cc1c(C)c2c(c(C)c1O)CCC(C)(CCCC(C)CCCC(C)CCCC(C)C)O2 (centres undefined)
[1]
  outcome: inactive; no positive results

## CC1=NN(c2ccccc2)C(=O)C1
[1]
  outcome: inactive; no positive results

## CNC(=O)Oc1cccc2ccccc12
[3]
  Potency: 14.1 mg/kg/day

## O=C/C=C/c1ccccc1
[1]
  outcome: inactive; no positive results

## COc1c2occc2cc2ccc(=O)oc12
[1]
  Potency: 32.4 mg/kg/day

## CC1CN1P(=O)(N1CC1C)N1CC1C (centres undefined)
  Potency: 4.46 mg/kg/day

## C=C1CC[C@H](O)C/C1=C/C=C1\CCC[C@]2(C)[C@@H]([C@H](C)CC[C@@H](O)C(C)(C)O)CC[C@@H]12
  outcome: inactive; no positive results

## COc1ccc(C(Cl)=C(c2ccc(OC)cc2)c2ccc(OC)cc2)cc1
[1]
  outcome: inactive; no positive results

## Cc1cccc(C)c1NC(=O)CN1CCCC1=O
[1]
  outcome: inactive; no positive results

## C=C(C)C#N
[1]
  outcome: inactive; no positive results

## CN(N=O)c1ccccn1
TargetSites_Rat_Female: esophagus
  Potency: 0.214 mg/kg/day

## O=[N+]([O-])c1ccccc1
TD50_Rat_Note: TD50 is harmonic mean of more than one positive test, TargetSites_Rat_Female: liver, uterus
  Potency: 25.5 mg/kg/day

## FC(F)Cl
[1]
  outcome: inactive; no positive results

## CC#N
[1]
  outcome: inactive; no positive results

## Cc1noc(NS(=O)(=O)c2ccc(N)cc2)c1C
[1]
  outcome: inactive; no positive results

## NC(=O)CCCCn1ccc(NC(N)=NCC(F)(F)F)n1
[4]
  Potency: 1170 mg/kg/day

## Cc1ccc2c(c1N)C(=O)c1ccccc1C2=O
[2]
  Potency: 59.2 mg/kg/day

## ClC1=C(Cl)C(Cl)(Cl)C(Cl)=C1Cl
[1]
  outcome: inactive; no positive results

## C1CCC(C(CC2CCCCN2)C2CCCCC2)CC1 (centres undefined)
[1]
  outcome: inactive; no positive results

## Nc1cnn([C@@H]2O[C@H](CO)[C@@H](O)[C@H]2O)c(=O)n1
  outcome: inactive; no positive results

## CCn1cc(C(=O)O)c(=O)c2ccc(C)nc21
TD50_Rat_Note: TD50 is harmonic mean of more than one positive test, TargetSites_Rat_Female: clitoral gland
  Potency: 201 mg/kg/day

## CCn1cc(C(=O)O)c(=O)c2cc3c(cc21)OCO3
[1]
  Potency: 167 mg/kg/day

## c1ccc(N=Nc2ccccc2)cc1
TD50_Rat_Note: TD50 is harmonic mean of more than one positive test, TargetSites_Rat_Female: spleen
  Potency: 24.1 mg/kg/day

## O=C(O)CNCC(=O)O
[1]
  outcome: inactive; no positive results

## Nc1ccc2ccccc2c1
TargetSites_Rat_Female: urinary bladder, TargetSites_Rat_BothSexes: no positive results
  Potency: 61.6 mg/kg/day

## [O]=[Cr](=[O])([OH])[O][Cr](=[O])(=[O])[OH]
  Potency: 4.64 mg/kg/day

## CC(=O)Oc1ccccc1C(=O)O
[5]
  outcome: inactive; no positive results

## c1ccc2c(c1)Oc1ccccc1O2
[1]
  outcome: inactive; no positive results

## Clc1cnc(Oc2ccc(Oc3ncc(Cl)cc3Cl)cc2)c(Cl)c1
  outcome: inactive; no positive results

## CC1(C)S[C@@H]2[C@H](NC(=O)COc3ccccc3)C(=O)N2[C@H]1C(=O)O
[1]
  outcome: inactive; no positive results

## O=C(O)O
[6]
  Potency: 13000 mg/kg/day
  outcome: inactive; no positive results

## O=NN1CC=CCO1
[3]
  Potency: 90.6 mg/kg/day

## O=S(=O)(O)NC1CCCCC1
[5]
  outcome: inactive

## ClCc1ccccn1
[1]
  outcome: inactive; no positive results

## Cc1cc(=O)n(-c2ccccc2)n1C
  Potency: 1230 mg/kg/day

## C=CC(=C)Cl
TD50_Rat_Note: TD50 is harmonic mean of more than one positive test, TargetSites_Rat_Female: kidney, mammary gland, oral cavity, thyroid gland
  Potency: 12.5 mg/kg/day
[1]
  outcome: inactive; no positive results

## [O-][Cl+]O
[1]
  outcome: inactive; no positive results

## FC(F)=C(F)F
TD50_Rat_Note: TD50 is harmonic mean of more than one positive test, TargetSites_Rat_Female: hematopoietic system, kidney, liver, vascular system
  Potency: 107 mg/kg/day

## CCN(Cc1cccc(S(=O)(=O)O)c1)c1ccc(C(=C2C=CC(=[N+](CC)Cc3cccc(S(=O)(=O)O)c3)C=C2)c2ccc(O)cc2S(=O)(=O)[O-])cc1
[1]
  outcome: inactive; no positive results

## O=C1NCCN1/N=C/c1ccc([N+](=O)[O-])o1
TargetSites_Rat_Female: hematopoietic system, mammary gland
  Potency: 5.26 mg/kg/day

## C=CC=C
TD50_Rat_Note: TD50 is harmonic mean of more than one positive test, greater than ten-fold variation among TD50 values for positive res, TargetSites_Rat_Female: mammary gland
  Potency: 261 mg/kg/day

## Clc1cc2c(cc1Cl)Oc1cc(Cl)c(Cl)cc1O2
TD50_Rat_Note: TD50 is harmonic mean of more than one positive test, greater than ten-fold variation among TD50 values for positive res, TargetSites_Rat_Female: liver, lung
  Potency: 2.35e-05 mg/kg/day

## O=C(O)c1nn(Cc2ccc(Cl)cc2Cl)c2ccccc12
[1]
  outcome: inactive; no positive results

## O=C1CN(/N=C/c2ccc([N+](=O)[O-])o2)C(=O)N1
[1]
  Potency: 163 mg/kg/day

## CCCc1ccc2c(c1)OCO2
TargetSites_Rat_BothSexes: esophagus
  Potency: 143 mg/kg/day

## C1CCNCC1
[1]
  outcome: inactive; no positive results

## OC[C@H]1O[C@@H]2O[C@H]3[C@H](O)[C@@H](O)[C@@H](O[C@H]4[C@H](O)[C@@H](O)[C@@H](O[C@H]5[C@H](O)[C@@H](O)[C@@H](O[C@H]6[C@H](O)[C@@H](O)[C@@H](O[C@H]7[C@H](O)[C@@H](O)[C@@H](O[C@H]8[C@H](O)[C@@H](O)[C@@H](O[C@H]1[C@H](O)[C@H]2O)O[C@@H]8CO)O[C@@H]7CO)O[C@@H]6CO)O[C@@H]5CO)O[C@@H]4CO)O[C@@H]3CO
[1]
  outcome: inactive; no positive results

## CCSCCC(N)C(=O)O (centres undefined)
TD50_Rat_Note: TD50 is harmonic mean of more than one positive test, harmonic mean of TD50 includes a value for upper 99% confidence li
  Potency: 9.76 mg/kg/day

## COc1ccc(O)cc1
[4]
  Potency: 658 mg/kg/day

## CCNC(=O)N(CCO)N=O
TD50_Rat_Note: TD50 is harmonic mean of more than one positive test, TargetSites_Rat_Female: mammary gland
  Potency: 0.562 mg/kg/day

## CCCCN(CCCC)N=O
  Potency: 0.691 mg/kg/day

## N[C@@H](Cc1ccc(N(CCCl)CCCl)cc1)C(=O)O
TD50_Rat_Note: positive test results only by intraperitoneal or intravenous injection, TD50 is harmonic mean of more than one positive, TargetSites_Rat_Female: peritoneal cavity
  Potency: 0.0938 mg/kg/day

## C1CC2OC2CC1C1CO1 (centres undefined)
[1]
  outcome: inactive

## CCCCCCCC(=O)OCC(COC(=O)CCCCCCC)OC(=O)CCCCCCC
  Potency: 5490 mg/kg/day

## CCN(CC)C(=S)S[Te](SC(=S)N(CC)CC)(SC(=S)N(CC)CC)SC(=S)N(CC)CC
[1]
  outcome: inactive; no positive results

## OCc1ccccc1
[1]
  outcome: inactive; no positive results

## C/C=C/C=C/C(=O)O
[1]
  outcome: inactive; no positive results

## Cc1cccc2cccnc12
[1]
  outcome: inactive; no positive results

## Cc1ccc(N)cc1Cl
[1]
  outcome: inactive; no positive results

## CC(=O)Nc1ccc(S(=O)(=O)c2ccc(NC(C)=O)cc2)cc1
TD50_Rat_Note: no positive results are statistically significant, TargetSites_Rat_Female: mammary gland
  Potency: 55.6 mg/kg/day

## C=C1C/C(=C/C)C(=O)O[C@@H]2CCN3CC=C(COC(=O)[C@@]1(O)CO)[C@H]23
TD50_Rat_Note: TD50 is harmonic mean of more than one positive test, TargetSites_Rat_Female: hematopoietic system, liver, vascular system
  Potency: 0.119 mg/kg/day

## CCCCCCCCCCCCCCCC(=O)CC(=O)CCCCCCCCCCCCCCC
[1]
  outcome: inactive

## ClC1=C(Cl)[C@]2(Cl)[C@@H]3[C@H]4C[C@H]([C@@H]5O[C@H]45)[C@@H]3[C@@]1(Cl)C2(Cl)Cl
[1]
  outcome: inactive; no positive results

## CC/C(=C(/CC)c1ccc(O)cc1)c1ccc(O)cc1
TD50_Rat_Note: TD50 is harmonic mean of more than one positive test, greater than ten-fold variation among TD50 values for positive res, TargetSites_Rat_Female: liver, pituitary gland
  Potency: 0.223 mg/kg/day

## c1ccc(NNc2ccccc2)cc1
TD50_Rat_Note: TD50 is harmonic mean of more than one positive test, TargetSites_Rat_Female: liver, mammary gland
  Potency: 5.59 mg/kg/day

## Cc1ccc(C)c(N)c1
  Potency: 152 mg/kg/day

## P
[1]
  outcome: inactive; no positive results

## Clc1cc(Cl)cc(-c2cc(Cl)cc(Cl)c2)c1
[1]
  outcome: inactive

## C[C@@H]1C/C=C/C=C/C=C/C=C/[C@H](O[C@@H]2O[C@H](C)[C@@H](O)[C@H](N)[C@@H]2O)C[C@@H]2O[C@](O)(C[C@@H](O)C[C@H]3O[C@@H]3/C=C/C(=O)O1)C[C@H](O)[C@H]2C(=O)O
[1]
  outcome: inactive; no positive results

## COc1ccccc1N
[6]
  Potency: 29.7 mg/kg/day

## COC(=O)C(c1ccccc1)C1CCCCN1 (centres undefined)
[1]
  outcome: inactive; no positive results

## COc1ccc(N)c(OC)c1
[1]
  outcome: inactive; no positive results

## CC(I)C1OCC(CO)O1 (centres undefined)
[1]
  Potency: 101 mg/kg/day

## CC(C)OC(=O)Nc1cccc(Cl)c1
[1]
  outcome: inactive; no positive results

## N[C@@H](Cc1cnc[nH]1)C(=O)O
[1]
  outcome: inactive; no positive results

## Cc1ccc(N=C=O)cc1N=C=O
TD50_Rat_Note: TD50 is harmonic mean of more than one positive test, TargetSites_Rat_Female: liver, mammary gland, pancreas, subcutaneous tissue
  Potency: 33.7 mg/kg/day

## Cc1cc(N=Nc2c(O)ccc3ccccc23)c(S(=O)(=O)O)cc1Cl
[1]
  Potency: 146 mg/kg/day

## ON=C1CCCC1
  Potency: 40.9 mg/kg/day

## COc1ccccc1[N+](=O)[O-]
TD50_Rat_Note: TD50 is harmonic mean of more than one positive test, greater than ten-fold variation among TD50 values for positive res, TargetSites_Rat_Female: hematopoietic system, kidney, large intestine, urinary bladder
  Potency: 15.6 mg/kg/day

## ClC1=C(Cl)[C@]2(Cl)[C@@H]3[C@H]4C=CC(C4)[C@@H]3C1(Cl)C2(Cl)Cl
[1]
  outcome: inactive; no positive results

## O=c1c(O)c(-c2ccc(O)cc2)oc2cc(O)cc(O)c12
[1]
  outcome: inactive; no positive results

## COc1ccc([N+](=O)[O-])cc1N=Nc1c(O)c(C(=O)Nc2cccc([N+](=O)[O-])c2)cc2ccccc12
[1]
  outcome: inactive; no positive results
